Values quoted from earlier work as cited in US9233169B2, “Oligomer-bis-chromonyl compound conjugates” (NEKTAR THERAPEUTICS, priority 2008, dated 2016).

System: mast cell degranulation
Conditions: monkey gingiva; Nuki et al. (1975)

**Q.** Which “inhibition of mast cell degranulation” value does the source give for `O=C([O-])c1cc(=O)c2c(OCC(O)COc3cccc4oc(C(=O)[O-])cc(=O)c34)cccc2o1.[Na+].[Na+]` [Cromonlyn sodium, disodium 5,5′-((2-hydroxytrimethylene)dioxy)bis(4-oxo-4H-1 benzopyran-2-carboxylate)] here?
**A.** inhibit mast cell degranulation
